The text below walks through data of patent US8907098B2, “Inhibitors of sphingosine kinase” (MERCK PATENT GmbH, priority 2009, dated 2014).

Molecules are shown by their SMILES. Bounds are passed on as bounds.

Sequence of modified SphK1 (Q9NYA1 whole entry): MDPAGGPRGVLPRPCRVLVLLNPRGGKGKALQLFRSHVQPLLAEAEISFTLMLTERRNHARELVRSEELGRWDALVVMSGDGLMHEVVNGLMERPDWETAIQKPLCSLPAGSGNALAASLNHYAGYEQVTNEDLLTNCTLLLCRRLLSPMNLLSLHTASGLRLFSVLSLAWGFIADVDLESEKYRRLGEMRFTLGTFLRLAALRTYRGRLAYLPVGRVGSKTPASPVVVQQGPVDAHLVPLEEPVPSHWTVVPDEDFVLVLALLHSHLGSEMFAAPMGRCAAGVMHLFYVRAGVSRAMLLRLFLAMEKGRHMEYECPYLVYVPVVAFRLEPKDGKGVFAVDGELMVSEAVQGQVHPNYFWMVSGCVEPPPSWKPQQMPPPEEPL

In this test the target is modified SphK1 (Homo sapiens, UniProt Q9NYA1). The experiment in a line: SphK1 biochemical kinase assay (384-well flashplate). The conditions noted are these: IC50 ranges; 5 nM modified SphK1, 1 μM ATP, 30° C., 120 min; read-out: SphK1 Inhibition IC50. Here is the method:
The kinase assay is carried out as a 384-well flashplate assay.
5 nM modified SphK1, 800 nM omega-biotinyl-D-erythro-sphingosine and 1 μM ATP (with 0.3 μCi of ^33P-ATP/well) are incubated in a total volume of 50 μl (25 mM HEPES, 5 mM MgCl2, 1 mM dithiothreitol, 0.01% of Brij35, 0.1% of BSA (fatty acid-free), pH 7.4) without or with test substance (5-10 concentrations) at 30° C. for 120 min. The reaction is terminated using 25 μl of 200 mM EDTA solution, filtered off with suction at room temperature after 30 min, and the cavities are washed 3 times with 100 μl of 0.9% NaCl solution. The non-specific proportion of the kinase reaction (blank) is determined using 0.5 mM NaCl. Radioactivity is measured in topcount. IC50 values are calculated using RS1.
Take `CC1(C)CCC(C)(C)c2cc(-c3csc(N4CCC(N(Cc5cc[nH]n5)Cc5cc[nH]n5)CC4)n3)ccc21` [Bis-(1H-pyrazol-3-ylmethyl)-{1-[4-(5,5,8,8-tetramethyl-5,6,7,8-tetrahydronaphthalen-2-yl)thiazol-2-yl]piperidin-4-yl}amine]: the IC50 lay within 0.1 to 1 µM. `CC1(C)CCC(C)(C)c2cc(-c3csc(N4CC[C@H](NCCCO)C4)n3)ccc21`: the 50% inhibitory concentration (IC50) was greater than 1 µM. Next, `CC1(C)CCC(C)(C)c2cc(-c3csc(N4CCC(CCCO)CC4)n3)ccc21`: greater than 1 µM. `CC1(C)CCc2cc(-c3csc(N4CCC(NCCCO)CC4)n3)ccc21` [3-{1-[4-(1,1-Dimethylindan-5-yl)thiazol-2-yl]piperidin-4-ylamino}propan-1-ol]: the IC50 lay in the range of 0.1 to 1 µM. For `CC1(C)CCC(C)(C)c2cc(-c3csc(N4CCCC(C(=O)NCCCO)C4)n3)ccc21` (centres unmarked) the value was greater than 1 µM; for `CC1(C)CCC(C)(C)c2cc(-c3csc(N4CCC5(CCNCC5)CC4)n3)ccc21` [3-[4-(5,5,8,8-Tetramethyl-5,6,7,8-tetrahydronaphthalen-2-yl)thiazol-2-yl]-3,9-diazaspiro[5.5]undecane], 0.1 to 1 µM.

As for `CC1(C)CCC(C)(C)c2cc(-c3csc(N4CCC(NC[C@H](O)CO)CC4)n3)ccc21`, the IC50 was less than 0.1 µM.

`CC1(C)CCC(C)(C)c2cc(-c3csc(N4CCN(CC(O)CO)CC4)n3)ccc21` (centres unmarked): the concentration for half-maximal inhibition (IC50) was in the range of 0.1 to 1 µM. Next, `CC1(C)CCC(C)(C)c2cc(-c3csc(N4CCN(CCCCCO)CC4)n3)ccc21`: 0.1 to 1 µM; `CCOC(=O)C1CCN(c2nc(-c3ccc4c(c3)C(C)(C)CCC4(C)C)cs2)CC1` [1-[4-(5,5,8,8-Tetramethyl-5,6,7,8-tetrahydronaphthalen-2-yl)thiazol-2-yl]piperidine-4-carboxylic acid ethyl ester]: greater than 1 µM; `CC1(C)CCC(C)(C)c2cc(-c3csc(N4CCC(CCN5CCCC5)CC4)n3)ccc21` [4-(2-Pyrrolidin-1-ylethyl)-1-[4-(5,5,8,8-tetramethyl-5,6,7,8-tetrahydronaphthalen-2-yl)thiazol-2-yl]piperidine]: 0.1 to 1 µM. Consider `CN(C)C1CCN(c2nc(-c3ccc4c(c3)C(C)(C)CCC4(C)C)cs2)CC1` [Dimethyl-{1-[4-(5,5,8,8-tetramethyl-5,6,7,8-tetrahydronaphthalen-2-yl)thiazol-2-yl]piperidin-4-yl}amine], for which the IC50 was less than 0.1 µM.

With `CC1(C)CCc2cc(-c3csc(N4CCC(N)CC4)n3)ccc21` [1-[4-(1,1-Dimethylindan-5-yl)thiazol-2-yl]piperidin-4-ylamine], the concentration for half-maximal inhibition (IC50) is 0.1 to 1 µM. Next, `CC1(C)CCC(C)(C)c2cc(-c3csc(N4CCC(C(=O)NCCO)CC4)n3)ccc21`: greater than 1 µM; `CC1(C)CCCc2cc(-c3csc(N4CCN(CCCCCO)CC4)n3)ccc21` [5-{4-[4-(5,5-Dimethyl-5,6,7,8-tetrahydronaphthalen-2-yl)thiazol-2-yl]-piperazin-1-yl}pentan-1-ol]: greater than 1 µM; `CC1(C)CCC(C)(C)c2cc(-c3csc(N4CCCC(CCCO)C4)n3)ccc21` (centres unmarked): greater than 1 µM. Next, `CC1(C)CCC(C)(C)c2cc(-c3csc(N4CCN(C5CCCCC5O)CC4)n3)ccc21` (centres unmarked): 0.1 to 1 µM; `CC1(C)CCC(C)(C)c2cc(-c3csc(N4CC[C@H](N)C4)n3)ccc21`: 0.1 to 1 µM; `CC1(C)CCC(C)(C)c2cc(-c3nc(C4CCNCC4)cs3)ccc21` [4-[2-(5,5,8,8-Tetramethyl-5,6,7,8-tetrahydronaphthalen-2-yl)thiazol-4-yl]piperidine]: 0.1 to 1 µM.

For the molecule `CC1(C)CCC(C)(C)c2cc(-c3csc(N4CCN(CCCCO)CC4)n3)ccc21`, the IC50 fell in the range of 0.1 to 1 µM.
